Experimental data as given in ChEMBL document CHEMBL2040786, “Click chemistry-derived bivalent quinine inhibitors of P-glycoprotein-mediated cellular efflux” (Bioorg Med Chem Lett, 2012).
pIC50: −log10 of the molar value.

What follows are compounds tested against T1, ATP-dependent translocase ABCB1 (Homo sapiens, UniProt P08183) (assay: Inhibition of p-glycoprotein expressed in human MCF-7/DX1 cells assessed as accumulation of calcein-AM by FACS analysis).
Type: cell-based

T1 sequence (P08183 whole entry): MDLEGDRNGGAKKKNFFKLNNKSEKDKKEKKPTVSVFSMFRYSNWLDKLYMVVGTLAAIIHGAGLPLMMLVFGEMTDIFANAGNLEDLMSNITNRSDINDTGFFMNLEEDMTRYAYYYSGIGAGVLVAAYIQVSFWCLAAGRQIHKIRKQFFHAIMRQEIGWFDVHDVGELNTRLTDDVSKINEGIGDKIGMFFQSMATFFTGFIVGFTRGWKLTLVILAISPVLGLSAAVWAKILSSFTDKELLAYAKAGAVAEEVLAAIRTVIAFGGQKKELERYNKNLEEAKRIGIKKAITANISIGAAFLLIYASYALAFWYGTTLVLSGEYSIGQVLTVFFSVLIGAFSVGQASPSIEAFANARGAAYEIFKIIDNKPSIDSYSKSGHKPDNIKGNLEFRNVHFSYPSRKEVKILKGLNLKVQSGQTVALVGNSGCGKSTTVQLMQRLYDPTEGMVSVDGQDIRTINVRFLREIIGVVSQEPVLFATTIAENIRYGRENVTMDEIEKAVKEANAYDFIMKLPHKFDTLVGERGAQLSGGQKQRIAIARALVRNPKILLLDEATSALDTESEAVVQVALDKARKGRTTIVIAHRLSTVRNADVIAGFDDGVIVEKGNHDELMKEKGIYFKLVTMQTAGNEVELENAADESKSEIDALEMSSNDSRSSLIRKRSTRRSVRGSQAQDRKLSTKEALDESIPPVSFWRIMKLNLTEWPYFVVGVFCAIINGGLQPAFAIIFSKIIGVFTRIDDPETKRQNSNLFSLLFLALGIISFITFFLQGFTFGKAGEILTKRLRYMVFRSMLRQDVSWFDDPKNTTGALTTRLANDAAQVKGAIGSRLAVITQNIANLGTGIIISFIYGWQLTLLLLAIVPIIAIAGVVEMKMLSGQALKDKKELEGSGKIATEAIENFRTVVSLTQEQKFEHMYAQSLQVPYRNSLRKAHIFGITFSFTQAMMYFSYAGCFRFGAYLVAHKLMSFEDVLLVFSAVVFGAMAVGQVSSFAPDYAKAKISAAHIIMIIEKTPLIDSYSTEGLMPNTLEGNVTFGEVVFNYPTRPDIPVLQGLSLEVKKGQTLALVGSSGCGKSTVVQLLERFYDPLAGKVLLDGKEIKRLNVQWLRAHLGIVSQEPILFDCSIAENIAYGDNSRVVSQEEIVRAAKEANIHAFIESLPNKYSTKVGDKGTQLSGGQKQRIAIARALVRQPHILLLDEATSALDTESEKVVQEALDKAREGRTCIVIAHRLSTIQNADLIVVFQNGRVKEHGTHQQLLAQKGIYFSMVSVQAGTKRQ

Row | pIC50 | SMILES
1 | 5.21 | C=C[C@H]1CN2CC[C@H]1C[C@H]2[C@H](OC(=O)CCc1cn(CCC(=O)O[C@H](c2ccnc3ccc(OC)cc23)[C@@H]2C[C@@H]3CCN2C[C@@H]3C=C)nn1)c1ccnc2ccc(OC)cc12
2 | 5.21 | C=C[C@H]1CN2CC[C@H]1C[C@H]2[C@H](OC(=O)CCCCn1cc(CCC(=O)O[C@H](c2ccnc3ccc(OC)cc23)[C@@H]2C[C@@H]3CCN2C[C@@H]3C=C)nn1)c1ccnc2ccc(OC)cc12
3 | 5.44 | C=C[C@H]1CN2CC[C@H]1C[C@H]2[C@H](OC(=O)CCCCCCn1cc(CCC(=O)O[C@H](c2ccnc3ccc(OC)cc23)[C@@H]2C[C@@H]3CCN2C[C@@H]3C=C)nn1)c1ccnc2ccc(OC)cc12
4 | 5.34 | C=C[C@H]1CN2CC[C@H]1C[C@H]2[C@H](OC(=O)CCCCc1cn(CCCCC(=O)O[C@H](c2ccnc3ccc(OC)cc23)[C@@H]2C[C@@H]3CCN2C[C@@H]3C=C)nn1)c1ccnc2ccc(OC)cc12
5 | 5.54 | C=C[C@H]1CN2CC[C@H]1C[C@H]2[C@H](OC(=O)CCCCCCn1cc(CCCCC(=O)O[C@H](c2ccnc3ccc(OC)cc23)[C@@H]2C[C@@H]3CCN2C[C@@H]3C=C)nn1)c1ccnc2ccc(OC)cc12
6 | 5.55 | C=C[C@H]1CN2CC[C@H]1C[C@H]2[C@H](OC(=O)CCCCCCc1cn(CCCCC(=O)O[C@H](c2ccnc3ccc(OC)cc23)[C@@H]2C[C@@H]3CCN2C[C@@H]3C=C)nn1)c1ccnc2ccc(OC)cc12
7 | 5.57 | C=C[C@H]1CN2CC[C@H]1C[C@H]2[C@H](OC(=O)CCCCCCc1cn(CCCCCCC(=O)O[C@H](c2ccnc3ccc(OC)cc23)[C@@H]2C[C@@H]3CCN2C[C@@H]3C=C)nn1)c1ccnc2ccc(OC)cc12
8 | 5.35 | C=C[C@H]1CN2CC[C@H]1C[C@H]2[C@H](OC(=O)CCCCCCCCc1cn(CCCCCCCCC(=O)O[C@H](c2ccnc3ccc(OC)cc23)[C@@H]2C[C@@H]3CCN2C[C@@H]3C=C)nn1)c1ccnc2ccc(OC)cc12

What follows are compounds tested against T1, ATP-dependent translocase ABCB1 (assay: Inhibition of p-glycoprotein expressed in human MCF-7/DX1 cells assessed as accumulation of calcein-AM at 1 uM by FACS analysis).
Type: cell-based

Row | inhibition (INH) | SMILES
9 | Active | C=C[C@H]1CN2CC[C@H]1C[C@H]2[C@H](OC(=O)CCCCCCc1cn(CCCCCCC(=O)O[C@H](c2ccnc3ccc(OC)cc23)[C@@H]2C[C@@H]3CCN2C[C@@H]3C=C)nn1)c1ccnc2ccc(OC)cc12
